Columns and labels:
HL-60 parental = assay: Alamar Blue cell viability assay; format: cell-based; details: Homo sapiens, 72 h
Description: (§1) Cells were exposed to multiple concentrations of the indicated compound for 72 h. Cell viability was assessed using the Alamar blue assay and respective IC50 values were calculated. The resistance factor (RF) was calculated by dividing the IC50 of the resistant cell line/IC50 of the parental cell line.
(§2) A2780-parental and A2780-ADR resistant cells were provided by the Beatson Institute of Cancer Research, Glasgow. […] All cells were cultured in RPMI-1640 Glutamax medium supplemented with 10% FCS media, 100 units/ml penicillin and 100 μg/mIstreptomycin. Cells were maintained at 37° C. in 5% CO2 in a humidified incubator.
(§3) The reduction of Alamar Blue is proportional to the number of viable cells. Cells (200 μl) were plated in triplicate in a 96-well plates (K562, 100,000/ml; HL-60, 300,000/ml; A-2780 50,000/ml). A-2780 cells were plated 24 h prior to treatment. Suspension cells were plated in the log phase of growth and treated immediately. The cells were then treated with either medium alone, vehicle (1% ethanol v/v or 0.1% DMSO v/v) or with a range of concentrations of drug [0.001-10 μM]. After 72 h, Alamar Blue was added to each well (10% of final volume) and fluorescence was read using a 96-well fluorometer with excitation at 530 nm and emission of 590 nm. The blank solution consisted of medium and Alamar Blue and the blank solution was used to calibrate the spectrophotometer to zero absorbance. The relative cell viability (%) related to control wells and was calculated by [A]test/[A]control×100 where [A]test is the absorbance of the drug treated cells and [A]control the absorbance of the vehicle control treated cells. Dose response curves were plotted and IC50 values (concentration of drug resulting in 50% reduction in cell survival) were obtained using the commercial software package Prism (GraphPad Software, Inc., La Jolla, USA). Experiments were performed in triplicate on at least three separate occasions.

HL-60-MDR(PGP) = assay: Alamar Blue cell viability assay; format: cell-based, human
Description: (§4) Three drug resistant cell lines and respective parental cell lines were assessed. […] Western blot analysis confirmed the overexpression of p-glycoprotein and BCRP in respective cell lines.
as §1
(§5) All cells were cultured in RPMI-1640 Glutamax medium supplemented with 10% FCS media, 100 units/ml penicillin and 100 μg/mIstreptomycin. Cells were maintained at 37° C. in 5% CO2 in a humidified incubator.
as §3

A2780-parental = assay: Alamar Blue cell viability assay; format: cell-based; details: 72 h
Description: as §1, §2, §3

HUVEC cells = assay: HUVEC DNA content by flow cytometry (PI); format: cell-based, human; details: 24 h
Description: FIG. 8 illustrates the anti-proliferative response of endothelial cells to compound 4. HUVEC cells were treated with vehicle (0.5% (v/v) ethanol) or the indicated concentrations of 4 for 24 h and fixed by a drop-wise addition of ice-cold ethanol. Cells were then stained with 0.15 mg/ml propidium iodide (PI) and their DNA content assessed using a FACSCalibur flow cytometer (Becton Dickinson, San Jose, Calif., USA). Data collections (10,000 events per sample) were gated to exclude cell debris and cell aggregates. Analysis of data was performed using the CellQuest software (Becton Dickinson). PI fluorescence was proportional to the amount of DNA present in each entity and therefore indicated the stage of the cell cycle. Cells in the subG0/G1 phase (<2N DNA) were deemed apoptotic, while cells with 4N quantities of DNA were considered to be in the G2/M phase of the cell cycle. Values represent the mean±S.E.M for three independent experiments.

[1] = test system: microtubule network of endothelial cells (HUVECs); assay: Microtubule network immunofluorescence; format: cell-based, human; details: 50 nM, 16 h
Description: FIG. 9 illustrates the effect of compound 4 in destabilising the microtubule network of endothelial cells. HUVECs (0.6×10^5 cell/chamber), grown on 4-chamber glass slides for 24 h were treated with vehicle (0.5% (v/v) ethanol) or 50 nM compound 4 for 16 h. The cells were then fixed in 100% methanol at −20° C., incubated with a monoclonal anti-α-tubulin antibody (Merck Biosciences, Nottingham, UK), followed by a FITC-conjugated anti-mouse antibody (DakoCytomation, Glostrup, Denmark) and then briefly stained with propidium iodide. The chamber partitions were removed from the slides and anti-quenching solution (2 mg/ml p-phenylenediamine in 50:50 glycerol to PBS solution) was applied to the surface of each slide and coverslips mounted. The organisation of the microtubule network and the cellular DNA was visualised using an Olympus IX81 Fluorescent Microscope (Olympus Corporation, Tokyo, Japan) at a magnification of 600×. The photographs illustrated in FIG. 9 are representative of three independent experiments.

HUVECs [2] = assay: In vitro tubule formation on matrigel; format: cell-based, human; details: 50 nM, 6 h
Description: FIG. 10 depicts the effect of compound 4 on in vitro tubule formation. HUVECs (1.5×10^6 cells/well) were grown on matrigel-coated 6-well plates for 6 h in the presence of vehicle (0.5% (v/v) ethanol) or 50 nM compound 4. […] The pictures shown in FIG. 10 are representative of three independent experiments. HUVECs seeded onto Matrigel in the presence of vehicle (0.5% (v/v) ethanol) underwent alignment into the capillary-like structures.

HUVECs [3] = assay: VEGF-stimulated transwell migration assay; format: cell-based; details: Homo sapiens, HUVEC; 50 nM, 6 h, 10 ng/ml VEGF
Description: This modified transwell migration assay consisted of an upper and a lower chamber separated by a membrane. Migration of HUVECs from the upper to the lower chamber was stimulated by addition of VEGF to the lower chamber. The effect of compound 4 on this migration was determined by its addition along with VEGF into the lower chamber. Migration was expressed as a percentage of migration in control chambers treated with the vehicle (100%). HUVECs 10,000 cells in […] medium were seeded onto fibronectin-coated […] transwell inserts in 24-well plates containing medium. HUVEC migration was stimulated by the addition of 10 ng/ml VEGF to the lower wells. Vehicle (0.5% (v/v) ethanol) or compound 4 (50 nM) were also added to the lower wells. After 6 h, the upper surfaces of the inserts were swabbed to remove non-migrated cells. Filters containing the migrated cells were stained with 0.5% toulidine blue 0 and 0.5% sodium tetraborate. The cells were solubilised in 0.2% (w/v) SDS in 20 mM Tris-HCl, pH 7.7 and staining quantified as absorbance at 650 nm. […] P-values were determined using a two-tailed Student's paired t-test. A value of P<0.05 was considered to be significant.

[4] = test system: breast carcinoma MDA-MB-231 cells; assay: Transwell migration assay; format: cell-based, human; details: 50 nM, 6 h
Description: FIG. 12 illustrates the migration of breast carcinoma MDA-MB-231 cells across transwell filters in the presence of vehicle (0.5% (v/v) ethanol) or 50 nM compound 4. Migration was expressed as a percentage of migration of vehicle-treated cells (100%). MDA-MB-231 cells (cultured as described supra) were seeded at a density of 2.5×10^4 cells/well onto 24-well Falcon migration inserts (8 μm pore size) in serum-free medium. Inserts were placed into Falcon companion plates containing 20% FBS and either vehicle (0.5% (v/v) ethanol) or 50 nM compound 4 and incubated for 6 h. The upper surfaces of the inserts were swabbed to remove non-migrated cells. Migrated cells on the underside of the membrane were fixed in methanol, stained with Mayers Hematoxylin, dehydrated in methanol and mounted on a glass slide. The number of cells in 5 fields at 10× magnification was counted. […] P-values were determined using a two-tailed Student's paired t-test. A value of P<0.05 was considered to be significant. Incubation for 6 h with compound 4 prevented MDA-MB-231 cell migration by 95.7% (***P<0.0001).

SNB-75 = assay: NCI60 cell line screen; format: cell-based; details: Homo sapiens, CNS
HL-60-BCRP = assay: Alamar Blue cell viability assay
Description: as §4, §1, §5, §3

A2780-ADR (PGP) = assay: Alamar Blue cell viability assay
Description: as §4, §1, §5, §3

MALME-3M = assay: NCI60 cell line screen; details: Homo sapiens

`COc1ccc(C2C(c3ccccc3)C(=O)N2c2cc(OC)c(OC)c(OC)c2)cc1O` (stereo not drawn) [Compound 4, 4-(3-Hydroxy-4-methoxyphenyl)-3-phenyl-1-(3,4,5-trimethoxyphenyl)-azetidin-2-one] was tested, and the IC50 (HL-60 parental) was 17.7 nM, the IC50 (HL-60-MDR(PGP); Homo sapiens, HL60/MDR, HL-60-MDR(PGP), 72 h, Alamar blue, read-out: IC50) was 18.2 nM and the RF (HL-60-MDR(PGP); IC50 HL-60-MDR(PGP) / IC50 HL-60 parental) was 1.03. For the same compound, the IC50 (A2780-parental) was 23.3 nM, the “effect on levels of apoptosis or G2/M” value (HUVEC cells; 1 nM) was “not sufficient to affect the levels of apoptosis or G2/M” and the “apoptosis (subG0/G1)” value (HUVEC cells; 10 nM) was 35.1%. The “cells in the G2/M phase” value (HUVEC cells; 10 nM) was 36.9%, the “apoptosis (subG0/G1)” value (HUVEC cells; 50 nM) was 31.4% and the “cells in the G2/M phase” value (HUVEC cells; 50 nM) was 37.0%. The “apoptosis (subG0/G1)” value (HUVEC cells; 100 nM) was 28.0%, the “cells in the G2/M phase” value (HUVEC cells; 100 nM) was 39.8% and the “effect on tubulin cytoskeleton” value [1] was “gross morphological changes in their tubulin cytoskeleton typical of depolymerising agents”. The “in vitro tubule formation” value (HUVECs [2]) was “prevented spontaneous in vitro tubule formation”, the inhibition at 0.05 µM (HUVECs [3]) was 74% and the “prevention of MDA-MB-231 cell migration” value [4] was 95.7%. It also gave a GI50 (SNB-75) of 47 nM, an IC50 (HL-60-BCRP; Homo sapiens, 72 h) of 25.3 nM and an RF (HL-60-BCRP; IC50 HL-60-BCRP / IC50 HL-60 parental) of 1.4. It also gave an IC50 (A2780-ADR (PGP); A2780 ADR, 72 h) of 10.4 nM and an RF (A2780-ADR (PGP); IC50 A2780-ADR (PGP) / IC50 A2780-parental) of 0.5.
For `COc1ccc(C2C(c3ccccc3)C(=O)N2c2cc(OC)c(OC)c(OC)c2)cc1` (stereo not drawn) [Compound 8, 4-(4-Methoxy-phenyl)-3-phenyl-1-(3,4,5-trimethoxy-phenyl)-azetidin-2-one], the GI50 (MALME-3M) was > 100000 nM.

— patent US20120309734A1, “COMBRETASTATIN DERIVATIVES AND USES THEREFOR” (priority 2009, published 2012)
